The text below walks through data of patent US12590100B2, “Tetrahydro-spiroindoline-pyrrolopyrrole-triones inhibitors of the NRF2-β-TrCP interaction for use in the treatment of fatty liver disease” (Universidad Autonoma De Madrid, priority 2021, dated 2026).

“Also recorded” adds a separate entry of the source.

Series [1] has as its system C57BL/6 mice treated with LPS. As to the kind of experiment: Inflammatory response in LPS-treated mice. The format is in vivo, mouse. As to the method:
FIG. 11. PHAR reduces the inflammatory response in LPS-treated mice. The mice were divided into 4 experimental groups (n=4). Experimental groups 1 and 3 were treated by IP route with vehicle (Tween-80+PBS, 1:13) and experimental groups 2 and 4 with 50 mg/kg of PHAR for 5 days. After the second-to-last administration of the compound, groups 3 and 4 were treated by IP route with 1 mg/kg of LPS for 24 h. Two hours after the last dose of PHAR and twenty-four hours after the administration of LPS, all the mice were sacrificed by extracting the liver protein and total RNA, A), representative immunoblots showing NRF2, HO1, and GAPDH protein levels as the liver extract loading control. B), densitometric analysis of NRF2 and HO1 protein levels of the representative immunoblots shown in (A), expressed as a ratio of NRF2/GAPDH or HO1/GAPDH. The data is depicted as means±SEM (n=4). Statistical analysis was performed with one-way ANOVA followed by the Bonferroni test to compare inter-group differences. **p<0.01; ***p<0.001 vs. vehicle. C), the mRNA levels of Il1β, Il6, and Tnfα were determined by means of qRT-PCR and normalized by means of average Gapdh, Tbp, and β-actin. The data is depicted as mean±SEM (n=4). Statistical analysis was performed with one-way ANOVA followed by the Bonferroni test to check inter-group differences. ***p<0.001 vs. LPS. D) Representative images of hematoxylin and eosin (H&E) staining of mouse liver and immunohistochemical F4/80 staining of inflammatory liver macrophages (Kupffer cells).
To that end, 16 wild-type C57BL/6 mice were divided into 4 experimental groups: vehicle (experimental group 1), PHAR (experimental group 2), LPS (3), and LPS+PHAR (4). After obtaining results as promising as those described in detail in Example 1.6, the inventors decided to carry out the same experimental protocol. Briefly, the mice were treated daily by IP route with 50 mg/kg of PHAR (experimental groups 2 and 4) or vehicle (groups 1 and 3). Two hours after the second-to-last administration, experimental groups 3 and 4 were treated by IP route with […] of LPS. Lastly, the last dose of PHAR was administered on the last day and 24 h after the administration of LPS, all the mice were sacrificed by extracting the liver protein and total RNA.

Series [2] can be described thus: HPLC-MS detection of PHAR in liver after IP injection. The following applies: mice, single IP 50 mg/kg, 120 min. The format is in vivo, mouse. As to the method:
FIG. 9. PHAR activates NRF2 and HO-1 in liver. A), UV and MS spectrum derived from the HPLC-MS analysis of PHAR dissolved in methanol for the identification of peaks associated with the compound. A blue rectangle surrounds the mass associated with PHAR. (B-D), the mice were treated with the vehicle (Tween-80+PBS, 1:13), 50 mg/kg of PHAR, or 50 mg/kg of SFN (saline) as a positive control by means of intraperitoneal (IP) injection for 2 hours. B), HPLC-MS UV and MS spectra derived from representative liver samples of both experimental groups used for determining PHAR levels in the liver 120 min after a single IP injection of 50 mg/kg. A blue rectangle surrounds the mass associated with PHAR. C), representative immunoblots showing NRF2, HO1, and LAMINB protein levels as the liver extract loading control. D), densitometric analysis of NRF2 protein levels of the representative immunoblots shown in (C), expressed as a ratio of NRF2/LAMINB. Statistical analysis was performed with one-way ANOVA followed by the Bonferroni test to compare inter-group differences. ***p<0.001 vs. vehicle. […] F), densitometric analysis of NRF2 and HO1 protein levels in the liver tissue of the representative immunoblots shown in (E), expressed as a ratio of NRF2/LAMINB or HO1/LAMINB levels. […]
Once the mechanism of action of PHAR was deciphered, the capacity thereof to induce NRF2 levels in a murine model was evaluated. […]

The mark [3] stands for this setting: mice, IP 50 mg/kg PHAR daily for 5 days.

As to `O=C1[C@@H]2[C@H](Cc3c[nH]c4ccccc34)N[C@]3(C(=O)Nc4ccc(Cl)cc43)[C@@H]2C(=O)N1c1ccc2c(c1)OCCO2` [PHAR], the “inflammatory activation of hepatic macrophages (Kupffer cells), F4/80 immunostaining” value in series [1] (LPS+PHAR-treated versus LPS-treated mice) is given as “reduction in F4/80 staining; also recorded: greatly attenuated”. Also, the “liver mRNA of pro-inflammatory cytokines (Il1β, Il6, Tnfα)” value in series [1] (LPS-treated mice, prior IP 50 mg/kg PHAR) is given as “significant reduction in the production of said cytokines”. Besides, in series [1] (setting [3]), the “liver HO-1 levels” value is on record as “induction mediated by the compound could be clearly seen” and the “liver NRF2 levels” value is recorded as “increase in NRF2 levels”. Moreover, the “liver structure (H&E)” value in series [1] (mice, IP 50 mg/kg PHAR for 5 days) is recorded as “remains unaltered”. In series [1] (mice, IP 50 mg/kg PHAR for 5 days plus LPS 24 h), the “liver NRF2 and HO-1 levels with combined treatment PHAR+LPS” value is “synergistic effect”. In addition, the “presence of PHAR in liver tissue (HPLC-MS)” value in series [2] is on record as “corresponded with the presence of the compound”.
